Where two headings read alike, the source gives them in different places.

One assay concerns NRTI-resistant viruses. Format: cell-based, HIV-1. Conditions: Mutant/WT (LAI) EC50 ratio, MT-2 cells, mean ± s.d. of three experiments. As for the experimental part:
The antiviral activity of the compound of Formula (a) was tested against a panel of known HIV-1 mutants resistant to HIV PIs (ATV and DRV), NRTIs (TFV and FTC), NNRTIs (RPV and EFV) or INSTIs (RAL, EVG and DTG) using a cytopathic antiviral assay in MT-2 cells.

The test system of the next assay is WT HXB2D. Nature of the assay: Cytopathic antiviral assay in MT-2 cells, wild type HXB2D. To be noted: Human immunodeficiency virus 1, MT2, read-out: WT HXB2D EC50, MT-2 cells, mean ± s.d. of three experiments in triplicate. Format: cell-based, HIV-1. As for the experimental part: (§1) The antiviral activity of the compound of Formula (a) was tested against a panel of known HIV-1 mutants resistant to HIV PIs (ATV and DRV), NRTIs (TFV and FTC), NNRTIs (RPV and EFV) or INSTIs (RAL, EVG and DTG) using a cytopathic antiviral assay in MT-2 cells. The compound of Formula (Ia) was fully active against all tested mutants resistant to PIs (Table 11), NRTIs (Table 12), NNRTIs (Table 13) or INSTIs (Table 14).

The subject of another assay is PI-resistant viruses. As to the kind of experiment: Cytopathic antiviral assay in MT-2 cells, PI-resistant viruses. Format: cell-based, HIV-1. Conditions: Mutant/WT (HXB2D) EC50 ratio, mean ± s.d. of three experiments. As for the experimental part: as §1
For orientation: Damage to the host cells serves as the signal in cytopathic effect assays.

Another assay has as its system HIV-1 clinical isolates. Nature of the assay: Antiviral activity against HIV-1 clinical isolates in PHA-stimulated human PBMCs. Format: cell-based. As for the experimental part:
(§2) The antiretroviral activity of the compound of Formula (Ia) was tested against a panel of 22 HIV-1 clinical isolates of HIV-1 and two HIV-2 isolates in freshly isolated, PHA-stimulated human peripheral blood mononuclear cells (PBMCs). The HIV-1 isolates included representative strains from subtypes A, B, C, D, E, F, G, N, O, AE, and AG. Following a 7-day infection, virus production was determined by measuring reverse transcriptase activity in cell-free culture supernatants.

In the next assay the test system is HIV-2 isolates. Nature of the assay: Antiviral activity against HIV-2 isolates in PHA-stimulated human PBMCs. To be noted: Human immunodeficiency virus 2, PBMC, 168 h, 7-day infection, RT activity readout, mean of triplicate. Type of assay: cell-based. As for the experimental part:
as §2

Another assay concerns NNRTI-resistant viruses. Nature of the assay: Cytopathic antiviral assay in MT-2 cells, NNRTI-resistant viruses. Type of assay: cell-based, HIV-1. Conditions: Mutant/WT (HXB2D) EC50 ratio, mean ± s.d. of three experiments. As for the experimental part: as §1
In a further assay the test system is INSTI-resistant viruses. As to the kind of experiment: Cytopathic antiviral assay in MT-2 cells, INSTI-resistant viruses. Format: cell-based, HIV-1. Conditions: Mutant/WT (HXB2D) EC50 ratio, mean ± s.d. of three experiments. As for the experimental part: as §1
Where [1] appears, read: NNRTI-resistance panel (Table 13).
Setting [2] is: INSTI-resistance panel (Table 14).

Regarding `C[C@H](Cn1cnc2c(N)ncnc21)OCP(=O)(O)O` [TFV, tenofovir], the “EC50 Fold-Change” value in the assay on NRTI-resistant viruses (6TAMs) turned out to be 3.0 ± 1.1; in the assay with NRTI-resistant viruses (K65R) it was 2.4 ± 1.0; in the assay with NRTI-resistant viruses (M184V), 0.9 ± 1.0.

What is called EC50 is the concentration needed to bring the measured effect to its halfway point. Regarding `CC(C)CN(C[C@@H](O)[C@H](Cc1ccccc1)NC(=O)O[C@H]1CO[C@H]2OCC[C@H]21)S(=O)(=O)c1ccc(N)cc1` [DRV, darunavir], the 50% effective concentration (EC50) in the assay on WT HXB2D (PI-resistance panel (Table 11)) turned out to be 2.82 ± 0.47 nM. The “EC50 Fold-Change” value was found to be 0.5 ± 0.2 in the assay on PI-resistant viruses (G48V/V82A/L90M), 0.3 ± 0.1 in the assay with PI-resistant viruses (G48V/V82S), 31.6 ± 22.8 in the assay on PI-resistant viruses (I50V) and 1.9 ± 0.9 in the assay with PI-resistant viruses (I84V/L90M).

For `Cc1cn([C@H]2C[C@H](N=[N+]=[N-])[C@@H](CO)O2)c(=O)[nH]c1=O` [AZT, zidovudine], the EC50 in the assay on HIV-1 clinical isolates (Human immunodeficiency virus 1, BAL, PBMC, 168 h, read-out: EC50 in human PBMCs, HIV-1 subtype B isolate Ba-L, 7-day infection, RT activity readout, mean of triplicate) was 43.2 nM; with HIV-1 clinical isolates (Human immunodeficiency virus 1, PBMC, 168 h, read-out: EC50 in human PBMCs, HIV-1 CRF01_AE isolate 90TH_CM235, 7-day infection, RT activity readout, mean of triplicate) it was 10.7 nM; in the assay with HIV-1 clinical isolates (Human immunodeficiency virus 1, PBMC, 168 h, read-out: EC50 in human PBMCs, HIV-1 CRF02_AG isolate 01CM0008BBY, 7-day infection, RT activity readout, mean of triplicate) it was 8.21 nM; in the assay on HIV-1 clinical isolates (Human immunodeficiency virus 1, PBMC, 168 h, read-out: EC50 in human PBMCs, HIV-1 CRF02_AG isolate 91DJ263, 7-day infection, RT activity readout, mean of triplicate), 34.9 nM; in the assay with HIV-1 clinical isolates (Human immunodeficiency virus 1, PBMC, 168 h, read-out: EC50 in human PBMCs, HIV-1 Group N isolate YBF30, 7-day infection, RT activity readout, mean of triplicate), 8.96 nM; in the assay on HIV-1 clinical isolates (Human immunodeficiency virus 1, PBMC, 168 h, read-out: EC50 in human PBMCs, HIV-1 Group O isolate BCF01, 7-day infection, RT activity readout, mean of triplicate), 10.5 nM. The EC50 with HIV-1 clinical isolates (Human immunodeficiency virus 1, PBMC, 168 h, read-out: EC50 in human PBMCs, HIV-1 subtype A isolate 92UG031, 7-day infection, RT activity readout, mean of triplicate) is 51.6 nM; in the assay with HIV-1 clinical isolates (Human immunodeficiency virus 1, PBMC, 168 h, read-out: EC50 in human PBMCs, HIV-1 subtype A isolate 92UG037, 7-day infection, RT activity readout, mean of triplicate) it was 21.7 nM; in the assay on HIV-1 clinical isolates (Human immunodeficiency virus 1, PBMC, 168 h, read-out: EC50 in human PBMCs, HIV-1 subtype B isolate 89BZ_167, 7-day infection, RT activity readout, mean of triplicate) it was 10.1 nM; in the assay on HIV-1 clinical isolates (Human immunodeficiency virus 1, PBMC, 168 h, read-out: EC50 in human PBMCs, HIV-1 subtype B isolate 90US_873, 7-day infection, RT activity readout, mean of triplicate), 13.2 nM; in the assay with HIV-1 clinical isolates (Human immunodeficiency virus 1, PBMC, 168 h, read-out: EC50 in human PBMCs, HIV-1 subtype B isolate 91US001, 7-day infection, RT activity readout, mean of triplicate) it was 20.3 nM; in the assay with HIV-1 clinical isolates (Human immunodeficiency virus 1, PBMC, 168 h, read-out: EC50 in human PBMCs, HIV-1 subtype B isolate 91US004, 7-day infection, RT activity readout, mean of triplicate) it was 19.7 nM. The 50% effective concentration (EC50) is 4.1 nM in the assay on HIV-1 clinical isolates (Human immunodeficiency virus 1, PBMC, 168 h, read-out: EC50 in human PBMCs, HIV-1 subtype B isolate 96TH_NP1538, 7-day infection, RT activity readout, mean of triplicate); 4.53 nM with HIV-1 clinical isolates (Human immunodeficiency virus 1, PBMC, 168 h, read-out: EC50 in human PBMCs, HIV-1 subtype B isolate JR-CSF, 7-day infection, RT activity readout, mean of triplicate); 16.9 nM with HIV-1 clinical isolates (Human immunodeficiency virus 1, PBMC, 168 h, read-out: EC50 in human PBMCs, HIV-1 subtype C isolate 92BR025, 7-day infection, RT activity readout, mean of triplicate); 37.8 nM with HIV-1 clinical isolates (Human immunodeficiency virus 1, PBMC, 168 h, read-out: EC50 in human PBMCs, HIV-1 subtype C isolate 98US_MSC5016, 7-day infection, RT activity readout, mean of triplicate); 7.29 nM in the assay with HIV-1 clinical isolates (Human immunodeficiency virus 1, PBMC, 168 h, read-out: EC50 in human PBMCs, HIV-1 subtype D isolate 92UG001, 7-day infection, RT activity readout, mean of triplicate); 6.61 nM in the assay with HIV-1 clinical isolates (Human immunodeficiency virus 1, PBMC, 168 h, read-out: EC50 in human PBMCs, HIV-1 subtype D isolate 98UG_57128, 7-day infection, RT activity readout, mean of triplicate). In addition, the EC50 in the assay with HIV-1 clinical isolates (Human immunodeficiency virus 1, PBMC, 168 h, read-out: EC50 in human PBMCs, HIV-1 subtype E isolate CMU02, 7-day infection, RT activity readout, mean of triplicate) turned out to be 8.13 nM; in the assay with HIV-1 clinical isolates (Human immunodeficiency virus 1, PBMC, 168 h, read-out: EC50 in human PBMCs, HIV-1 subtype E isolate CMU08, 7-day infection, RT activity readout, mean of triplicate) it was 34.1 nM; in the assay with HIV-1 clinical isolates (Human immunodeficiency virus 1, PBMC, 168 h, read-out: EC50 in human PBMCs, HIV-1 subtype F isolate 93BR020, 7-day infection, RT activity readout, mean of triplicate) it was 25.1 nM; in the assay with HIV-1 clinical isolates (Human immunodeficiency virus 1, PBMC, 168 h, read-out: EC50 in human PBMCs, HIV-1 subtype G isolate JV1083, 7-day infection, RT activity readout, mean of triplicate), 20.5 nM; with HIV-1 clinical isolates (Human immunodeficiency virus 1, PBMC, read-out: HIV-1 EC50 Mean ± s.d., mean over the 22 HIV-1 clinical isolates, human PBMCs) it was 19 ± 13.5 nM; with HIV-1 clinical isolates (Human immunodeficiency virus 1, PBMC, read-out: HIV-1 EC50 Median, median over the 22 HIV-1 clinical isolates, human PBMCs), 15.1 nM. For the same compound, the EC50 in the assay on HIV-1 clinical isolates (Human immunodeficiency virus 1, PBMC, read-out: HIV-1 EC50 Range, range over the 22 HIV-1 clinical isolates, human PBMCs) was 4.1 to 51.6 nM; in the assay with HIV-2 isolates (HIV-2 isolate CBL-20), 14.3 nM; in the assay on HIV-2 isolates (HIV-2 isolate CDC310319), 28.8 nM.

`Cc1cc(/C=C/C#N)cc(C)c1Nc1ccnc(Nc2ccc(C#N)cc2)n1` [RPV, rilpivirine]: the concentration giving a half-maximal response (EC50) in the assay on WT HXB2D (setting [1]) was 0.93 ± 0.23 nM. For the same compound, the “EC50 Fold-Change” value in the assay on NNRTI-resistant viruses (K103N) is given as 0.7 ± 0.3; in the assay with NNRTI-resistant viruses (K103N/Y181C), 3.2 ± 1.4; in the assay with NNRTI-resistant viruses (L100I/K103N), 7.8 ± 2.6; in the assay on NNRTI-resistant viruses (Y181C), 5.9 ± 4.3; in the assay on NNRTI-resistant viruses (Y188L) it was 6.9 ± 1.3.

Regarding `O=C1Nc2ccc(Cl)cc2[C@@](C#CC2CC2)(C(F)(F)F)O1` [EFV, efavirenz], the EC50 was 1.37 ± 0.51 nM with WT HXB2D (setting [2]), 2.23 ± 0.18 nM in the assay on WT HXB2D (setting [1]) and 1.64 ± 0.55 nM in the assay on WT HXB2D (PI-resistance panel (Table 11)). Moreover, the “EC50 Fold-Change” value is 0.9 ± 0.4 in the assay with PI-resistant viruses (G48V/V82A/L90M); 0.7 ± 0.1 with PI-resistant viruses (G48V/V82S); 3.0 ± 0.9 in the assay on PI-resistant viruses (I50V); 0.4 ± 0.1 in the assay on PI-resistant viruses (I84V/L90M); 14.2 ± 2.7 with NNRTI-resistant viruses (K103N); above 22.4 in the assay on NNRTI-resistant viruses (K103N/Y181C). In addition, the “EC50 Fold-Change” value is listed as above 22.4 in the assay with NNRTI-resistant viruses (L100I/K103N); 3.3 ± 2.5 with NNRTI-resistant viruses (Y181C); above 22.4 with NNRTI-resistant viruses (Y188L); 1.2 ± 0.6 in the assay with INSTI-resistant viruses (E92Q/N155H); 0.7 ± 0.3 in the assay on INSTI-resistant viruses (E138K/Q148K); 1.0 ± 0.3 in the assay with INSTI-resistant viruses (G140S/Q148R). Further, the “EC50 Fold-Change” value in the assay with INSTI-resistant viruses (N155H/Q148R) was found to be 1.1 ± 0.5; in the assay with INSTI-resistant viruses (R263K/M50I), 1.3 ± 0.9; with INSTI-resistant viruses (Y143R), 0.9 ± 0.6.

As for `Cc1nnc(C(=O)NC(C)(C)c2nc(C(=O)NCc3ccc(F)cc3)c(O)c(=O)n2C)o1` [RAL, raltegravir], the EC50 in the assay with WT HXB2D (setting [2]) was found to be 6.41 ± 2.15 nM. Also, the “EC50 Fold-Change” value is on record as above 15.6 in the assay on INSTI-resistant viruses (E92Q/N155H); above 15.6 in the assay with INSTI-resistant viruses (E138K/Q148K); above 15.6 in the assay on INSTI-resistant viruses (G140S/Q148R); 13.9 ± 2.2 in the assay on INSTI-resistant viruses (N155H/Q148R); 1.6 ± 1.2 in the assay with INSTI-resistant viruses (R263K/M50I); 10.1 ± 1.2 in the assay on INSTI-resistant viruses (Y143R).

The record behind these values is patent US12594267B2, “Capsid inhibitors for the treatment of HIV” (Gilead Sciences, Inc., priority 2018, dated 2026).
